Source: patent publication US20200216493A1, “ANTIMICROBIAL PEPTIDES” (FERRING B.V., priority 2016, published 2020)
≈ marks a conversion by molar mass, not a printed value. Like-named read-outs stand apart in the source and are kept apart here.

Key:
E. faecalis (5 isolates) = format: cell-based, Enterococcus faecalis; conditions: 20 h
Protocol: (§1) The broth microdilution susceptibility assay followed the procedure described by the Clinical and Laboratory Standards Institute (CLSI) in CLSI document M7-A10.
(§2) The following bacteria isolates were tested:
(§3) S.aureus, S.epidermidis, E.faecalis, and E.faecium colonies were grown on TSA (Tryptone Soya Agar; cat.N. P05012A -OXOID) S.pneumoniae and S.pyogenes colonies were grown on TSASB ((TSA) Agar +5% Sheep Blood; cat.N. PB5012A -OXOID). An inoculum was prepared by making a direct saline suspension of isolated colonies selected from an 18 to 24 hours agar plate incubated at 35±2 ° C. in ambient air. The suspension was adjusted to achieve a turbidity equivalent to a 0.5 McFarland turbidity standard (1 to 2 ×10^8 Colony Forming Units (CFU)) and diluted 200 fold within 15 minutes in broth. (S.aureus, S.epidermidis, E.faecalis, and E.faecium were diluted in CAMHB: Mueller Hinton Broth 2, Cation-Adjusted (cat. N. 90922 Fluka); S.pneumoniae and S.pyogenes were diluted in CAMHB +2.5% lysed horse blood. All broth contained 0.002% polysorbate 80.
(§4) 96-well plates were prepared containing 1 μL of the test compound (at 100× desired test concentration in 100% DMSO); compounds were tested at 8 final concentrations, i.e. 16 μg/mL, 8 μg/mL, 4 μg/mL, 2 μg/mL, 1 μg/mL, 0.5 μg/mL, 0.25 μg/mL, and 0.125 μg/mL. 100 μL of the broth dilution was dispensed in each well plate to have a final bacterial concentration in plate of ˜5×10^5 CFU/mL. The plates were incubated at 35±2° C. in ambient air for 20 hours.

S.aureus = format: cell-based, Staphylococcus aureus
Protocol: (§5) This assay was used to determine the minimum concentration of a test compound (i.e., an antimicrobial peptide described herein) able to inhibit the growth of a bacterial strain of interest. This is a standard method for measuring and comparing the potency of peptide-based antibacterial agents (Steinberg et al., Antimicrobial Agents and Chemotherapy 1997, 41 (8) 1738 - 1742 and Wiegand et al., Nature Protocols 2008, 3, 163-175).
(§6) The MIC is reported in units of μg/mL.
(§7) Bacterial cultures were grown by inoculating Mueller-Hinton Broth (MHB) with 3 or 4 representative colony (typical size, color, and shape) from a bacterial strain grown on a LB agar plate. Inoculated liquid cultures were grown at 37° C. with moderate shaking (200-250 rpm) until bacteria produced a visibly turbid suspension. Bacterial inoculum was approximated by measuring the optical density at 600 nm (0D600) of the bacterial culture against a sterile MHB blank. Typically, OD600=0.10 corresponds to ˜1×10^8 cfu/mL for S.aureus and OD600 =0.15 corresponds to ˜1×10^8 cfu/mL for E.coli.
(§8) Test compounds were prepared as stock solutions in vehicle at a concentration 10 times the highest concentration to be tested for antibacterial activity (usually 320 μg/mL stock solutions). 2x serial dilutions in vehicle (at 10× the final test concentrations) of the test compounds were prepared from the test compound stock solutions in a non-binding 96 well plate.
(§9) In a sterile clear flat bottom 96 well plate, 15 μL of each test compound dilution was added to 135 μL of ˜5×10^5 cfu/mL bacterial culture. Each concentration was tested in duplicate. Each experiment contained positive control wells for bacterial growth (i.e., no test compound added to bacteria) and sterility controls wells (i.e., sterile MHB and no test compounds added). 96 well plates containing bacterial cultures and test compounds were incubated at 37° C. for 16-20 hours with shaking at 200 rpm.
(§10) After incubation, the MIC of each test compound was determined by measuring the OD600 of each well using a plate reader. Wells with OD600 >0.08 were considered to have bacterial growth and wells with OD600<0.08 were considered to have no bacterial growth. The lowest concentration of test agent able to inhibit bacterial growth (0D600<0.08 after 16-20 hours) was defined as the MIC.

[1] = test system: S. epidermidis (5 isolates); format: cell-based, Staphylococcus epidermidis; conditions: 20 h
Protocol: as §1, §2, §3, §4

[2] = test system: S. pneumoniae (8 isolates); format: cell-based, Streptococcus pneumonia; conditions: 20 h
Protocol: as §1, §2, §3, §4

E. faecium (3 isolates) = format: cell-based, Enterococcus faecium; conditions: 20 h
Protocol: as §1, §2, §3, §4

E.coli = format: cell-based, Escherichia coli; conditions: for MIC ratio Coli/Staph: ratio of E. coli MIC to S. aureus MIC
Protocol: as §5, §6, §7, §8, §9, §10

S. pyogenes (2 isolates) = format: cell-based, Streptococcus pyogenes; conditions: 20 h
Protocol: as §1, §2, §3, §4

S. aureus (14 isolates) = format: cell-based, Staphylococcus aureus; conditions: 20 h
Protocol: as §1, §2, §3, §4

in vitro = format: cell-based; conditions: human, HepG2 cells
Protocol: Compounds were tested for cytotoxicity to a mammalian cell line HepG2 (Human hepatocyte carcinoma from ECACC (85011430)). Hep G2 cells were seeded into 96-well plates, 7500 cells/well in 100 μl medium (Minimum Essential Medium (Gibco 21090) supplemented with 2 mM L-Glutamine, 1% non-essential amino acids and 10% fetal bovine serum) and incubated for 20 hours at 37° C., 5% CO2. 100 μL of fresh medium containing a test compound or DMSO (for control) at 2× final concentration were added and incubated for 48 hours at 37° C., 5% CO2. The final concentration of DMSO in plate was 1%. At the end of this incubation, 20 μl MTT (Thiazolyl Blue Tetrazolium Bromide) solution 5 mg/ml in H2O (0.5 mg/ml final in well) was added to all wells. Cells were incubated with MTT for 4 hours at 37° C., 5% CO2. After incubation, medium containing MTT was removed; 200 μl of DMSO was added in each well and plates were put on a shaker for 5 minutes. Absorbance was read on a SpectraMax plate reader at 570 nm. Specific absorbance (Specific A570) was calculated by subtracting the mean absorbance values of the blank wells (no HepG2 cells) from each well. Control values were determined from wells containing cells and treated with medium+1% DMSO only (no test compound). % viability was calculated as:
(Specific A570test compound/Specific A570control)×100.

| Structure (SMILES) | E. faecalis (5) MIC90 (E. faecalis (5 isolates)) [µg/mL] | MIC C. difficile (C. difficile; anaerobic broth microdilution, read after 44-48 hours, Example 17b) [µg/mL] | MIC S. aureus (S.aureus) [µg/mL] | S. epidermidis (MIC90) (5) [1] [µg/mL] | S. pneumoniae (8) MIC90 [2] [µg/mL] | MIC B. fragilis (B. fragilis) [µg/mL] | E. faecium (3) MIC90 (E. faecium (3 isolates)) [µg/mL] | MIC E. coli (E.coli) [µg/mL] | MIC ratio Coli/Staph (E.coli) | S. pyogenes (2) MIC90 (S. pyogenes (2 isolates)) [µg/mL] | S. Aureus (14) MIC90 (S. aureus (14 isolates)) [µg/mL] | viability at 48 h, 100 µM (in vitro) [%] | MIC C. difficile (C. difficile) [µg/mL] |
| --- | --- | --- | --- | --- | --- | --- | --- | --- | --- | --- | --- | --- | --- |
| CC[C@H](C)[C@H](NC(=O)[C@@H](Cc1ccccc1)NC)C(=O)N[C@@H](CO)C(=O)N[C@H](CCC(N)=O)C(=O)N[C@@H](C(=O)N[C@H](C(=O)N[C@@H](CO)C(=O)N[C@H]1C(=O)N[C@@H](C)C(=O)N[C@@H](CCCCNC(=N)N)C(=O)N[C@@H]([C@@H](C)CC)C(=O)O[C@H]1C)[C@@H](C)CC)[C@@H](C)CC [Compound 5, H-D-MePhe-Ile-Ser-D-Gln-D-aIle-Ile-Ser-c(D-Thr-Ala-Har-Ile)] | 0.5 | <0.03 to 0.06 | 0.13 (≈ 0.103 µM) | ≤0.12 | ≤0.12 | >32 | 0.5 | 10 (≈ 7.95 µM) | 77 | ≤0.12 | 0.25 | 117 |  |
| CC[C@H](C)[C@H](NC(=O)[C@@H](Cc1ccc(Cl)cc1)NC)C(=O)N[C@@H](CO)C(=O)N[C@H](CCC(N)=O)C(=O)N[C@@H](C(=O)N[C@H](C(=O)N[C@@H](CO)C(=O)N[C@H]1C(=O)N[C@@H](C)C(=O)N[C@@H](CCCCNC(=N)N)C(=O)N[C@@H]([C@@H](C)CC)C(=O)O[C@H]1C)[C@@H](C)CC)[C@@H](C)CC [Compound 70, H-D-MePhe(4-Cl)-Ile-Ser-D-Gln-D-aIle-Ile-Ser-c(D-Thr-Ala-Har-Ile)] | 0.25 |  | 0.03 to 0.06 | ≤0.12 | ≤0.12 | >32 | ≤0.12 | >16 | >530 | ≤0.12 | ≤0.12 | 114 | 0.015 to 0.03 |
| CC[C@H](C)[C@H](NC(=O)[C@@H](Cc1ccccc1)NC)C(=O)N[C@@H](CO)C(=O)N[C@H](CCC(N)=O)C(=O)N[C@@H](C(=O)N[C@H](C(=O)N[C@@H](CO)C(=O)N[C@H]1C(=O)N[C@@H](C)C(=O)N[C@@H](CCCCNCc2ccccc2)C(=O)N[C@@H]([C@@H](C)CC)C(=O)O[C@H]1C)[C@@H](C)CC)[C@@H](C)CC [Compound 71, H-D-MePhe-Ile-Ser-D-Gln-D-aIle-Ile-Ser-c(D-Thr-Ala-Lys(Bn)-Ile)] | 0.5 |  | 0.03 to 0.06 | ≤0.12 | ≤0.12 | >32 | 0.5 | >16 | >530 | ≤0.12 | ≤0.12 | 92 | 0.03 to 0.06 |
| CC[C@H](C)[C@H](NC(=O)[C@@H](Cc1ccccc1)NC)C(=O)N[C@@H](CO)C(=O)N[C@H](CCC(N)=O)C(=O)N[C@@H](C(=O)N[C@H](C(=O)N[C@@H](CO)C(=O)N[C@H]1C(=O)N[C@@H](C)C(=O)N[C@@H](Cc2ccc(NC(=N)N)cc2)C(=O)N[C@@H]([C@@H](C)CC)C(=O)O[C@H]1C)[C@@H](C)CC)[C@@H](C)CC [Compound 72, H-D-MePhe-Ile-Ser-D-Gln-D-aIle-Ile-Ser-c(D-Thr-Ala-Phe(4-guanidino)-Ile)] | 0.5 |  | 0.12 to 0.25 | ≤0.12 | ≤0.12 | >32 | 0.5 | >16 | >128 | ≤0.12 | 0.25 | 115 | 0.25 to 0.5 |
| CC[C@H](C)[C@H](NC(=O)[C@@H](Cc1ccc(OC)cc1)NC)C(=O)N[C@@H](CO)C(=O)N[C@H](CCC(N)=O)C(=O)N[C@@H](C(=O)N[C@H](C(=O)N[C@@H](CO)C(=O)N[C@H]1C(=O)N[C@@H](C)C(=O)N[C@@H](CCCCNC(=N)N)C(=O)N[C@@H]([C@@H](C)CC)C(=O)O[C@H]1C)[C@@H](C)CC)[C@@H](C)CC [Compound 74, H-D-MeTyr(Me)-Ile-Ser-D-Gln-D-aIle-Ile-Ser-c(D-Thr-Ala-Har-Ile)] | 1 |  | 0.06 (≈ 0.0466 µM) | ≤0.12 | ≤0.12 | >32 | 0.5 | >16 | >530 | ≤0.12 | ≤0.12 | 136 | 0.06 to 0.12 |
